Measured values from patent EP4745135A1 (Gluetacs Therapeutics (Shanghai) Co., Ltd., priority 2023, dated 2025).

Columns and labels:
Test in all cases: Western blot, degradation of substrate protein in hPBMCs
[1] = test system: GSPT1; assay type: cell-based, Human
Procedure: (§1) Conventional Western blot assay was performed to evaluate the effects of the compounds of the present disclosure on the expression of target proteins in cells. • (1) Cell Seeding and Protein Harvesting: Human peripheral blood mononuclear cells (hPBMCs) at a density of 1×10^6 cells/mL were thawed according to the PBMC Recovery Protocol (Milecell Biotechnologies Inc, Shanghai). […] After 24 hours of compounds treatment, cells were harvested and lysed in RIPA protein lysate containing protease inhibitors on ice for 30 min, followed by centrifugation. The supernatant was aspirated as the extracted total cell protein. The protein concentration of the supernatant was determined using the conventional BCA (Bicinchoninic Acid) assay. • (2) To the collected supernatant, 5X SDS sample loading buffer was added, followed by denaturation at 95°C for 5 minutes. The denatured samples were then separated by SDS-PAGE electrophoresis on a polyacrylamide gel, transferred onto a nitrocellulose membrane (0.45 µm NC membrane), blocked with blocking buffer at room temperature for 1 hour, and subjected to antibody incubation and development procedures according to the antibody manufacturer's instructions (Cell Signaling Technology Company).
(§2) Half-Maximal Degradation Concentration value (the drug concentration required for degrading proteins by 50%, abbreviated as DC50) reads method: comparing the grayscale values of Western blot bands from drug-treated samples with those from blank DMSO-treated controls, and identifying the drug concentration range at which the grayscale value is half that of the DMSO-treated control bands.
(§3) DC50 values can be calculated using ImageJ software to measure grayscale values of Western blot bands from drug-treated samples. The concentration-response curve is fitted to estimate the drug concentration corresponding to half the grayscale value.
(§4) Target protein remaining (%) refers to the percentage of target protein remaining in cells after treatment with protein degrader compounds.
(§5) Calculation method for target protein remaining (%): Use ImageJ software to measure grayscale values of Western blot bands from drug (protein degrader)-treated samples. The grayscale value of drug-treated bands is divided by that of internal control protein bands, and the resulting quotient is normalized to obtain the relative percentage of remaining target protein after protein degrader treatment.
(§6) Target protein degradation rate (%) = 1−target protein remaining (%). [formula]

[2] = target: T1, IKZF1 (Homo sapiens, UniProt Q13422+Q96SW2); assay type: cell-based
T1 construct: effects of the compounds of the present disclosure on the expression of target proteins in cells; endogenous in cells; host or cells: human PBMCs (Milecell Biotechnologies)
Procedure: as §1, §2, §3, §4, §5, §6

[3] = target: T2, WEE1 (Homo sapiens, UniProt P30291+Q96SW2); assay type: cell-based
T2 construct: effects of the compounds of the present disclosure on the expression of target proteins in cells; endogenous in cells; host or cells: human PBMCs (Milecell Biotechnologies)
Procedure: as §1, §2, §3, §4, §5, §6

[4] = target: T3, IKZF3 (Homo sapiens, UniProt Q96SW2+Q9UKT9); assay type: cell-based
T3 construct: effects of the compounds of the present disclosure on the expression of target proteins in cells; endogenous in cells; host or cells: human PBMCs (Milecell Biotechnologies)
Procedure: as §1, §2, §3, §4, §5, §6

[5] = target: T4, IKZF2 (Homo sapiens, UniProt Q96SW2+Q9UKS7); assay type: cell-based
T4 construct: effects of the compounds of the present disclosure on the expression of target proteins in cells; endogenous in cells; host or cells: human PBMCs (Milecell Biotechnologies)
Procedure: as §1, §2, §3, §4, §5, §6

[6] = target: T5, CK1α (Homo sapiens, UniProt P48729+Q96SW2); assay type: cell-based
T5 construct: effects of the compounds of the present disclosure on the expression of target proteins in cells; endogenous in cells; host or cells: human PBMCs (Milecell Biotechnologies)
Procedure: as §1, §2, §3, §4, §5, §6

[7] = Western blot, 24 hours of compound treatment, compounds tested at 50 nM and 500 nM (concentration for the table not stated)
[8] = 24 hours treatment, compounds at 50 nM and 500 nM (concentration behind the class not stated)

T2 sequence (P30291 whole entry): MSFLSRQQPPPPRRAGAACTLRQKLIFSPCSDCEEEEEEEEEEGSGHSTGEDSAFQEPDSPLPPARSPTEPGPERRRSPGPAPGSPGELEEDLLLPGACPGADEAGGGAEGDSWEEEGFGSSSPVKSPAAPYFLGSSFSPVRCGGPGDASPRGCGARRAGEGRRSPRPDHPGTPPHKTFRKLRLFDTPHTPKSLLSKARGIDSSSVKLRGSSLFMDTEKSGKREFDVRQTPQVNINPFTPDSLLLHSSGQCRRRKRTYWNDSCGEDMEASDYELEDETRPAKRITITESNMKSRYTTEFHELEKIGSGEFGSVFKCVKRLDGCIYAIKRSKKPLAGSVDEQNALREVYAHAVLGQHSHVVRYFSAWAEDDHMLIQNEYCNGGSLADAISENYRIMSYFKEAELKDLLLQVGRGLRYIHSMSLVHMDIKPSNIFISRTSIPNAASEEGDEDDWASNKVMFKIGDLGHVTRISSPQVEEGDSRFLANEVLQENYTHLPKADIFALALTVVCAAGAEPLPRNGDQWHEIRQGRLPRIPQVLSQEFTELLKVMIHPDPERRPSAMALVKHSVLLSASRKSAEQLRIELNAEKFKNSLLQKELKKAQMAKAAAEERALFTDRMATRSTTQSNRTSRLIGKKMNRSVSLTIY
T2 sequence (Q96SW2 whole entry): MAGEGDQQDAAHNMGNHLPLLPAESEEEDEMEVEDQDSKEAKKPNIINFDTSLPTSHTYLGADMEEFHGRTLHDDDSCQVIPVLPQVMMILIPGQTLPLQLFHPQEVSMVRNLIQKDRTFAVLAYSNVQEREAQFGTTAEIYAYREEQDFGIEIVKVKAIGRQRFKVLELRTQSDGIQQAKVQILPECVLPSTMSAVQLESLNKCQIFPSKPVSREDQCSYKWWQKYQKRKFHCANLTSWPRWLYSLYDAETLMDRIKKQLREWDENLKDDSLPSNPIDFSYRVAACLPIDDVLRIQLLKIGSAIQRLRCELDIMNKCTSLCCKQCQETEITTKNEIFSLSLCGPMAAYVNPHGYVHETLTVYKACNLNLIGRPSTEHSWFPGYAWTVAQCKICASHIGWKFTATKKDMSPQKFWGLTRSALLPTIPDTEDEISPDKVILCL
T2 sequence (Q16531 whole entry partner): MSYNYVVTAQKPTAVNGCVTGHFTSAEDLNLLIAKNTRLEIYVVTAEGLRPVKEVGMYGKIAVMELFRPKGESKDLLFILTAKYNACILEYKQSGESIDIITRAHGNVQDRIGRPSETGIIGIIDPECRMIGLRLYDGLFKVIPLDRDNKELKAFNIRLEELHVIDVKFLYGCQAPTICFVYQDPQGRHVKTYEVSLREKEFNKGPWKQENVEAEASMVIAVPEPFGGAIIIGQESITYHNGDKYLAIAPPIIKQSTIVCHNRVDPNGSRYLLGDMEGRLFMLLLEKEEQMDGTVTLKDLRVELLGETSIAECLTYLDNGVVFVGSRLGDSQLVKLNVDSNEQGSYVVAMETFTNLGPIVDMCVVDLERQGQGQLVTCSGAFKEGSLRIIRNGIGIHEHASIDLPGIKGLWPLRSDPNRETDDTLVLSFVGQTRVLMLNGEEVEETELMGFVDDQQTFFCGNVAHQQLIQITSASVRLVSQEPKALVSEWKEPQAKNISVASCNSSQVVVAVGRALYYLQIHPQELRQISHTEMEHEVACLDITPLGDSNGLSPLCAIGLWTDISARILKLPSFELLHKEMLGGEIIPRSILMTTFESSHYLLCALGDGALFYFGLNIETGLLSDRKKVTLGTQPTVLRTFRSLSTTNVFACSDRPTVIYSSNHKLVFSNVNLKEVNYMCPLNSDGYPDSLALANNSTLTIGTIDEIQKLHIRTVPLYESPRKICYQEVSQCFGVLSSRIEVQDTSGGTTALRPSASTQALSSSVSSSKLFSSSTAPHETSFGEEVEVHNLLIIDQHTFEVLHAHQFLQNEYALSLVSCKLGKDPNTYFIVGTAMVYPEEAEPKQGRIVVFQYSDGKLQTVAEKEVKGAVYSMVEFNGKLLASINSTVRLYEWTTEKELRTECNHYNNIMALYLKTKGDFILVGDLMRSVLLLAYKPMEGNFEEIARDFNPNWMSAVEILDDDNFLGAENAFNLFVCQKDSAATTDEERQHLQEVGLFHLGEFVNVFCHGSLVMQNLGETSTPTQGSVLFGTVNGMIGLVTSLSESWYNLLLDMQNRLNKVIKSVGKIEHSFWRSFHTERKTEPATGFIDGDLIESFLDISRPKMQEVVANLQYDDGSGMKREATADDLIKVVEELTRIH
T5 sequence (P48729 whole entry): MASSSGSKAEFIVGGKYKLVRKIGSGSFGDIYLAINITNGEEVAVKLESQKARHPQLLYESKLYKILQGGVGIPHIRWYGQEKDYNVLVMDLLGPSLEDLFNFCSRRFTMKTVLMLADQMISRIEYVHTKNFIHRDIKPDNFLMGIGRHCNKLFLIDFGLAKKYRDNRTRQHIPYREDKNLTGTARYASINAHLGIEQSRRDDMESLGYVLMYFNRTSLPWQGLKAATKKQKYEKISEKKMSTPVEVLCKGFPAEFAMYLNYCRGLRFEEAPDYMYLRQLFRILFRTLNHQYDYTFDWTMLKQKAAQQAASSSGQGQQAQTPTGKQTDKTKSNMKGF
T5 sequence (Q96SW2 whole entry): as the sequence (Q96SW2 whole entry) above
T5 sequence (Q16531 whole entry partner): as the sequence (Q16531 whole entry partner) above
T1 sequence (Q13422 whole entry): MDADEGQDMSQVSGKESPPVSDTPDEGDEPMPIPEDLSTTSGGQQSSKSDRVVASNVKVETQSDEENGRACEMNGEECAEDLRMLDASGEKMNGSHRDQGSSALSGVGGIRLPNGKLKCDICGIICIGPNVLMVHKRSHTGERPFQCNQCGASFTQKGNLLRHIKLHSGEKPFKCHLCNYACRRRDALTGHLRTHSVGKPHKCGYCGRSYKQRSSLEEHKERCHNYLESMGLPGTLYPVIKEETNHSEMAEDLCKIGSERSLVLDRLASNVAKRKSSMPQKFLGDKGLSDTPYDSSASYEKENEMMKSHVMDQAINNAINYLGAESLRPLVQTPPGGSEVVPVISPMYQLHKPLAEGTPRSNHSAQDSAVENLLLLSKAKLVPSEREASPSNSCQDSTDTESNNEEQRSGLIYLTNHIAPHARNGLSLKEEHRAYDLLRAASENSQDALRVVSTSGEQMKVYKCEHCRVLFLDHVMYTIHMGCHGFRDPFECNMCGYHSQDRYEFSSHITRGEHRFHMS
T1 sequence (Q96SW2 whole entry): as the sequence (Q96SW2 whole entry) above
T1 sequence (Q16531 whole entry partner): as the sequence (Q16531 whole entry partner) above
T3 sequence (Q9UKT9 whole entry): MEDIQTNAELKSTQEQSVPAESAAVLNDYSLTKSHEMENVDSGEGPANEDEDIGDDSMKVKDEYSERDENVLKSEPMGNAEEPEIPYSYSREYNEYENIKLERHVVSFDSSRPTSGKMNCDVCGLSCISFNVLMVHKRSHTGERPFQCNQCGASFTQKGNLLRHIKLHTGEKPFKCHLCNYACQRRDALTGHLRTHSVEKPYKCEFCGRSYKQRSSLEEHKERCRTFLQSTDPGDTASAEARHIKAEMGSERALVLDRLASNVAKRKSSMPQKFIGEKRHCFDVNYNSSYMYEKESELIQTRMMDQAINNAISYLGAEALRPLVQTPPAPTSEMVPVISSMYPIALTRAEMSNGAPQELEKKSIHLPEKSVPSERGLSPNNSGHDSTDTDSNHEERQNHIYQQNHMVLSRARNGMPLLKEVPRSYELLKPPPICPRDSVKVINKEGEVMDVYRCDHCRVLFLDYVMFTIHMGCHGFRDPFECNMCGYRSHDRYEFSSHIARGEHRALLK
T3 sequence (Q96SW2 whole entry): as the sequence (Q96SW2 whole entry) above
T3 sequence (Q16531 whole entry partner): as the sequence (Q16531 whole entry partner) above
T4 sequence (Q9UKS7 whole entry): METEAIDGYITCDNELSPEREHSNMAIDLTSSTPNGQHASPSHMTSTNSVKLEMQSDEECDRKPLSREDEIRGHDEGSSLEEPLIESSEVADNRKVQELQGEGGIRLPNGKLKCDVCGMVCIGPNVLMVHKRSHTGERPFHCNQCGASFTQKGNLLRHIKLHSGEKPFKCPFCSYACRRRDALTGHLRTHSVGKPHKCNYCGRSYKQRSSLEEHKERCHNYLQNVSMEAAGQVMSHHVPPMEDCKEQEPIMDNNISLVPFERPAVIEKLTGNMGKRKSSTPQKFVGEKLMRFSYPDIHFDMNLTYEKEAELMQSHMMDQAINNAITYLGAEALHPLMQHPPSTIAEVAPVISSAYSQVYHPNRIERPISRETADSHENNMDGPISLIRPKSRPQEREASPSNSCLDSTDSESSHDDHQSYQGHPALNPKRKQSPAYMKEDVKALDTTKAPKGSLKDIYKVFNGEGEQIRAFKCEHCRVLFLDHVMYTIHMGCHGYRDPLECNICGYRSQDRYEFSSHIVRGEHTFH
T4 sequence (Q96SW2 whole entry): as the sequence (Q96SW2 whole entry) above
T4 sequence (Q16531 whole entry partner): as the sequence (Q16531 whole entry partner) above

| SMILES | GSPT1 substrate protein remaining % [1, 7] | IKZF 1 substrate protein remaining % [2, 7] | Wee1 substrate protein remaining % [3, 7] | IKZF3 substrate protein remaining % [4, 7] | IKZF2 substrate protein remaining % [5, 7] | CK1α substrate protein remaining % [6, 7] | GSPT1 substrate protein remaining % [1, 8] | IKZF 1 substrate protein remaining % [2, 8] | Wee1 substrate protein remaining % [3, 8] | IKZF3 substrate protein remaining % [4, 8] | IKZF2 substrate protein remaining % [5, 8] | CK1α substrate protein remaining % [6, 8] |
| --- | --- | --- | --- | --- | --- | --- | --- | --- | --- | --- | --- | --- |
| O=C1CCC(N2Cc3c(CN4CCN(c5ccccc5Br)CC4)cccc3C2=S)C(=O)N1 (stereo not drawn) [GT-08267, 3-(4-((4-(2-bromophenyl)piperazin-1-yl)methyl)-1-thioxoisoindolin-2-yl)piperidine-2,6-dione] | A (0% ≤ substrate protein remaining % ≤ 80%) | B (80%< substrate protein remaining %≤ 100%) | A (0% ≤ substrate protein remaining % ≤ 80%) | B (80%< substrate protein remaining %≤ 100%) | B (80%< substrate protein remaining %≤ 100%) | B (80%< substrate protein remaining %≤ 100%) |  |  |  |  |  |  |
| O=C1CCC(N2Cc3c(CN4CCN(c5cccc(Cl)c5Cl)CC4)cccc3C2=S)C(=O)N1 (stereo not drawn) [GT-08258, 3-(4-((4-(2,3-dichlorophenyl)piperazin-1-yl)methyl)-1-thioxoisoindolin-2-yl)piperidine-2,6-dione] | A (0% ≤ substrate protein remaining % ≤ 80%) | B (80%< substrate protein remaining %≤ 100%) | A (0% ≤ substrate protein remaining % ≤ 80%) | B (80%< substrate protein remaining %≤ 100%) | B (80%< substrate protein remaining %≤ 100%) | B (80%< substrate protein remaining %≤ 100%) |  |  |  |  |  |  |
| Cc1ccccc1N1CCN(Cc2cccc3c2CN(C2CCC(=O)NC2=O)C3=S)CC1 (stereo not drawn) [GT-08497, 3-(1-thioxo-4-((4-(o-tolyl)piperazin-1-yl)methyl)isoindolin-2-yl)piperidine-2,6-dione] | A (0% ≤ substrate protein remaining % ≤ 80%) | A (0% ≤ substrate protein remaining % ≤ 80%) | A (0% ≤ substrate protein remaining % ≤ 80%) | B (80%< substrate protein remaining %≤ 100%) | A (0% ≤ substrate protein remaining % ≤ 80%) | B (80%< substrate protein remaining %≤ 100%) |  |  |  |  |  |  |
| Cc1csc2ncnc(C3=CCN(Cc4cccc5c4CN(C4CCC(=O)NC4=O)C5=S)CC3)c12 (stereo not drawn) [GT-08938, 3-(4-((4-(5-methylthieno[2,3-d]pyrimidin-4-yl)-3,6-dihydropyridin-1(2H)-yl)methyl)-1-thioxoisoindolin-2-yl)piperidine-2,6-dione] |  |  |  |  |  |  | B (80%< substrate protein remaining %≤ 100%) | B (80%< substrate protein remaining %≤ 100%) | A (0% ≤ substrate protein remaining % ≤ 80%) | B (80%< substrate protein remaining %≤ 100%) | B (80%< substrate protein remaining %≤ 100%) | B (80%< substrate protein remaining %≤ 100%) |
| O=C1CCC(N2Cc3c(CN4CCN(c5c(Cl)ccnc5Cl)CC4)cccc3C2=S)C(=O)N1 (stereo not drawn) [GT-08725, 3-(4-((4-(2,4-dichloropyridin-3-yl)piperazin-1-yl)methyl)-1-thioxoisoindolin-2-yl)piperidine-2,6-dione] | A (0% ≤ substrate protein remaining % ≤ 80%) | B (80%< substrate protein remaining %≤ 100%) | A (0% ≤ substrate protein remaining % ≤ 80%) | B (80%< substrate protein remaining %≤ 100%) | B (80%< substrate protein remaining %≤ 100%) | B (80%< substrate protein remaining %≤ 100%) |  |  |  |  |  |  |
| O=C1CCC(N2Cc3c(CN4CC=C(c5cccc(Cl)c5Cl)CC4)cccc3C2=S)C(=O)N1 (stereo not drawn) [GT-08270, 3-(4-((4-(2,3-dichlorophenyl)-3,6-dihydropyridin-1(2H)-yl)methyl)-1-thioxoisoindolin-2-yl)piperidine-2,6-dione] | A (0% ≤ substrate protein remaining % ≤ 80%) | B (80%< substrate protein remaining %≤ 100%) | A (0% ≤ substrate protein remaining % ≤ 80%) | B (80%< substrate protein remaining %≤ 100%) | B (80%< substrate protein remaining %≤ 100%) | B (80%< substrate protein remaining %≤ 100%) |  |  |  |  |  |  |
| CC(C)c1cc2c(N3CCN(Cc4cccc5c4CN(C4CCC(=O)NC4=O)C5=S)CC3)ncnc2s1 (stereo not drawn) [GT-08915, 3-(4-((4-(6-isopropylthieno[2,3-d]pyrimidin-4-yl)piperazin-1-yl)methyl)-1-thioxoisoindolin-2-yl)piperidine-2,6-dione] |  |  |  |  |  |  | B (80%< substrate protein remaining %≤ 100%) | B (80%< substrate protein remaining %≤ 100%) | A (0% ≤ substrate protein remaining % ≤ 80%) | B (80%< substrate protein remaining %≤ 100%) | B (80%< substrate protein remaining %≤ 100%) | B (80%< substrate protein remaining %≤ 100%) |
| O=C1CCC(N2Cc3c(CN4CCN(c5ccc(C(F)(F)F)cn5)CC4)cccc3C2=S)C(=O)N1 (stereo not drawn) [GT-08702, 3-(1-thioxo-4-((4-(5-(trifluoromethyl)pyridin-2-yl)piperazin-1-yl)methyl)isoindolin-2-yl)piperidine-2,6-dione] | B (80%< substrate protein remaining %≤ 100%) | B (80%< substrate protein remaining %≤ 100%) | A (0% ≤ substrate protein remaining % ≤ 80%) | B (80%< substrate protein remaining %≤ 100%) | B (80%< substrate protein remaining %≤ 100%) | B (80%< substrate protein remaining %≤ 100%) |  |  |  |  |  |  |
| O=C1CCC(N2Cc3c(CN4CCC(c5nccc(Cl)c5Cl)CC4)cccc3C2=S)C(=O)N1 (stereo not drawn) [GT-08457, 3-(4-((4-(3,4-dichloropyridin-2-yl)piperidin-1-yl)methyl)-1-thioxoisoindolin-2-yl)piperidine-2,6-dione] | B (80%< substrate protein remaining %≤ 100%) | B (80%< substrate protein remaining %≤ 100%) | A (0% ≤ substrate protein remaining % ≤ 80%) | B (80%< substrate protein remaining %≤ 100%) | B (80%< substrate protein remaining %≤ 100%) | B (80%< substrate protein remaining %≤ 100%) |  |  |  |  |  |  |
| O=C1CCC(N2Cc3c(CN4CCC(c5cccc(F)c5Cl)CC4)cccc3C2=S)C(=O)N1 (stereo not drawn) [GT-08321, 3-(4-((4-(2-chloro-3-fluorophenyl)piperidin-1-yl)methyl)-1-thioxoisoindolin-2-yl)piperidine-2,6-dione] |  |  |  |  |  |  | B (80%< substrate protein remaining %≤ 100%) | B (80%< substrate protein remaining %≤ 100%) | A (0% ≤ substrate protein remaining % ≤ 80%) | A (0% ≤ substrate protein remaining % ≤ 80%) | B (80%< substrate protein remaining %≤ 100%) | B (80%< substrate protein remaining %≤ 100%) |
